# Experimental data taken from patent US20260355168A1, “COMPOSITIONS AND METHODS FOR TREATING AND DETECTING CANCER” (CASE WESTERN RESERVE UNIVERSITY, priority 2022, published 2026).
# “Also recorded” adds a separate entry of the source.
# How the values were obtained:
# LN229 cells [1] = experiment: LN229 scratch wound healing assay; type: cell-based, human
# From the text: FIGS. 3(A-D) illustrate a histogram and images of the LN229 scratch wound assays. A. Histogram showing the effects of all soluble wedge-targeted compounds on LN229 scratch wound closure. Cell movement into the scratches was quantified from scratch wound widths at the start and end of the assay and normalized to the average movement of cells in the unblinded DMSO control samples. Data is presented as average percentages±standard error of the means (s.e.m.), and compound bar codes are shown on the x-axis. The majority of compounds were screened with an n=2. Some priority compounds were screened with 3-6 replicates. Representative endpoint images of samples treated with DMSO (B) and two priority inhibitors (C and D) are shown. The relative migration distances for each example are indicated.
# (§1) Cells were seeded at a density of 2.7×10^4 cells per well into the internal wells of Incuyte1 Imagelock 96-well plates (Essen BioScience Inc., Ann Arbor, MI) and cultured overnight to form monolayers. Monolayers were wounded with an IncuCyte1 96-well Woundmaker Tool per the manufacturer's instructions. The outer wells were filled with PBS to buffer edge effects, and then the wounded monolayers were cultured in 100 μl of fresh media with compounds or DMSO (2×replicates at 100 μM or 1%, respectively) at 37 °C and 5% CO2. Images were captured every 4 hrs. using an Incucyte live cell imaging system equipped with the Scratch Wound Module. Scratch wound widths were calculated, per the manufacturer's instructions, at TO and at endpoint (typically T12 for LN229 and U87 cells and T8 for Gli36), which was taken as the last timepoint before wound closure. The cell migration distance was calculated from scratch widths [(T0Width−TendpointWidth)/2] and normalized to the average distance migrated by the DMSO controls. Values are presented as average percentages±standard errors of the means (s.e.m.). The majority of compounds were screened with an n of two, but the n for priority hits ranges from 2-6.
# Scratch assays measure the ability of cells to migrate into a wound and close it creating a monolayer.
# glioma cells = experiment: Glioma cell assays combined (scratch and sphere, several cell lines); type: cell-based, human; details: 100 μM; multiple assays and cell lines
# Protocol: FIG. 2 illustrates a schematic of a functional screening approach. Seventy-four PTPμ wedge-targeted compounds and 2 blinded DMSO samples were received from Atomwise and screened at 100 μM in scratch wound healing assays using two glioma cell lines (LN229 and U87). Selected active and control compounds were taken into secondary assays (Gli36 scratch and LN229 and Gli36 sphere formation and growth assays). Inhibitors selected as being active in primary and secondary screens were tested for effects on the survival of LN229 and Sf9 cells, and selected glioma-cell inhibitors and activators were screened for effects on Sf9-PTPμ aggregation, a highly specific test for PTPμ function.
# as §1
# (§2) Cells were seeded at a density of 7500 cells per well into the internal wells of 96-well plates coated with 0.75% (wt/vol) PVA as previously described. Compounds were added (2×replicates per treatment) at the indicated final concentrations, and control wells were treated with matching concentrations of DMSO. The external wells of the plates were filled with PBS to buffer against edge effects, and the cells were incubated at 37 °C and 5% CO2 for 7 days. A Leica CTR6500 microscope fitted with an automated stage was used to capture brightfield images on day 1 and day 7, and sphere footprint areas were measured using Image J (v1.52a http://imagej.nih.gov/ij) as previously described. To quantify the effects of the compounds on day 1, the footprint areas of the treated wells were normalized to the average area of the matched DMSO control wells. To quantify the effects of the compounds on sphere growth, the change in the sphere footprint areas was calculated ([…]) and then normalized to the average size change of the matched DMSO samples. All values are presented as average percentages±s.e.m.
# U87 cells = experiment: U87 scratch wound healing assay; type: cell-based, human; details: 100 μM; in words
# From the text: FIGS. 11(A-D) illustrate a histogram and images of the results of the U87 scratch wound assays. A. Histogram showing the effects of all soluble wedge pocket-targeting compounds on U87 scratch wound closure. Cell movement into the scratches was quantified from scratch wound widths at the start and end of the assay and normalized to the average movement of cells in the unblinded DMSO control samples. Data is presented as average percentages±s.e.m., and compound bar codes are shown on the x-axis. Most compounds were screened with an n of 2-4. Representative images of scratch wounds treated with DMSO (A) or two priority inhibitors (C and D) are shown.
# as §1
# PTPμ = PTPμ (Homo sapiens, UniProt P28827); experiment: PTPμ-dependent Sf9 aggregation assay; type: cell-based; details: 100 μM; 20 min pretreatment; in words
# Chain of PTPμ (P28827 21-1452): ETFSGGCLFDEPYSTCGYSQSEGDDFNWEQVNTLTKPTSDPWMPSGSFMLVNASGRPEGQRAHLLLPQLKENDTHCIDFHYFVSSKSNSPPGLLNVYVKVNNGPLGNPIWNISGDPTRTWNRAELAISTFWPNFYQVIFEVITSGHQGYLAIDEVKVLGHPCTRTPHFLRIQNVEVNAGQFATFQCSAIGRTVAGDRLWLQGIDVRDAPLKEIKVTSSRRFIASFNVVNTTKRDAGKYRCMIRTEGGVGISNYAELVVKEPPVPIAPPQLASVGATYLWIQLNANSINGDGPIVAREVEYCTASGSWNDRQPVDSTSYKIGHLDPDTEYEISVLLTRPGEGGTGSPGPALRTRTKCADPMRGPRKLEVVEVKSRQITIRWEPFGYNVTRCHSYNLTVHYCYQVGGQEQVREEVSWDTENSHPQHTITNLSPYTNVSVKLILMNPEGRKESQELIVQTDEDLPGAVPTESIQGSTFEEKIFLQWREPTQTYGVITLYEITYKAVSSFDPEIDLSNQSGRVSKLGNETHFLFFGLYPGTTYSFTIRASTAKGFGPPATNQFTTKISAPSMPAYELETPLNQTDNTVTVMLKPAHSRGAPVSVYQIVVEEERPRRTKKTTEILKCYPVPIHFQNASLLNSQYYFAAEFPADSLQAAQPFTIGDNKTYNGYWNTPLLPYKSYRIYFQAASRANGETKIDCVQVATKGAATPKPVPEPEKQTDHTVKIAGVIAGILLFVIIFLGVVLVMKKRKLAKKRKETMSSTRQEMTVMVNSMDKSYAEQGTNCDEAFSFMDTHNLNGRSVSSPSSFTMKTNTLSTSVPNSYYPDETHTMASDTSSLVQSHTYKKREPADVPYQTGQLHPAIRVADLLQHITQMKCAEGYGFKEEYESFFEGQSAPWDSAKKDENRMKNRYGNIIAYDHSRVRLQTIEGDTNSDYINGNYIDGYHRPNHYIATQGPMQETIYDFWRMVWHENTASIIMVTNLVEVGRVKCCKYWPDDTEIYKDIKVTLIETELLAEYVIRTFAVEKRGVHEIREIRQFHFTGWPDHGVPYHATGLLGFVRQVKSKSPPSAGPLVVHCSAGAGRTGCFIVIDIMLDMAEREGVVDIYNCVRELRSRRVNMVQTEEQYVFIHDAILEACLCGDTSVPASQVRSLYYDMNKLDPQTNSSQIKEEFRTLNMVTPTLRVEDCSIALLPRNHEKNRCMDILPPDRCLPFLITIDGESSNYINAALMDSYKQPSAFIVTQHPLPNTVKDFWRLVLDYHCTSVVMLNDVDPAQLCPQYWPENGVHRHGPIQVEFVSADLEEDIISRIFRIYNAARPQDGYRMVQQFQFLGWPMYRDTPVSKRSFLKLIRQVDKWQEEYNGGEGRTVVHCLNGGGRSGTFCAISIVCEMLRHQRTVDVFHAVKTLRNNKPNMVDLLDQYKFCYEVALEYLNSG
# Gli36 cells = experiment: Gli36 glioma sphere formation and growth assay; type: cell-based, human
# Protocol: FIGS. 6(A-E) illustrate a histogram and images showing the results of the Gli36 sphere formation and growth assays. Selected inhibitors, activators, and control compounds identified in LN229 and/or U87 scratch wound closure assays were retested at 100 μM in a secondary assay for glioma cell (Gli36) sphere formation and growth. A. Histogram showing the effects of the indicated compounds on Day 1 sphere footprint areas. Footprint areas were measured and normalized to the average footprint area of the unblinded DMSO-treated controls. On day 1, a larger footprint area indicates inhibition of aggregation. B. Histogram showing the effects of the indicated compounds on sphere growth. Changes in sphere footprint areas were calculated and normalized to the average size change of the unblinded vehicle-treated controls. On day 7, a smaller value indicates reduced growth. […] Data is presented as percentages±s.e.m. of 2-4 replicates. Representative images of samples treated with DMSO (C) and two priority inhibitors (D and E) are shown. Relative day 1 footprint areas and day 7 growth measurements are indicated for each example.
# as §2
# LN229 cells [2] = experiment: LN229 glioma sphere formation and growth assay; type: cell-based, human; details: 100 μM, in words
# Protocol: FIGS. 5(A-E) illustrate a histogram and images showing the results of the LN229 sphere formation and growth assays. Selected inhibitors, activators, and control compounds identified in LN229 and/or U87 scratch wound closure assays were retested at 100 μM in a secondary assay for glioma cell (LN229) sphere formation and growth. A. Histogram showing the effects of the indicated compounds on sphere formation. On day 1, sphere footprint areas were determined and normalized to the average footprint area of the unblinded vehicle-treated controls. On day 1, a larger footprint area indicates inhibition of aggregation. B. Histogram showing the effects of the indicated compounds on sphere growth. On day 7, the changes in sphere footprint areas were calculated and normalized to the average size change of the unblinded vehicle-treated controls. On day 7, a smaller value indicates reduced growth. […] Data is presented as percentages±s.e.m. of 2-4 replicates. Representative images of samples treated with DMSO (C) and two priority inhibitors (D and E) are shown. Relative day 1 footprint areas and day 7 growth measurements are indicated for each example.
# FIGS. 15(A-D) illustrate a histogram and images of titration of selected compounds on LN229 sphere formation and growth. LN229 cells were plated onto non-adherent surfaces and treated with the indicated compounds at 100, 50, and 25 μM. A. On day 1, sphere footprint areas were determined and normalized to the average footprint area of the unblinded vehicle-treated controls. On day 1, a larger foot-print area indicates inhibition of aggregation. B. On day 7, the changes in sphere footprint areas were calculated and normalized to the average size change of the unblinded vehicle-treated controls. On day 7, a smaller value indicates reduced growth. […] Data is presented as percentages±s.e.m. The initial test at 100 μM and the follow-up at that dose with titration is shown. Each bar is the average of 2 replicates. Representative day 1 (C) and day 7 (D) images of samples treated with two priority inhibitors are shown. Relative day 1 sphere footprint areas and day 7 growth for each example are indicated.
# as §2
# We tested the effects of twenty-four compounds (11 flagged as inhibitory, 4 as stimulatory, and nine as inert in the initial scratch-wound screen, FIG. 2) on the ability of LN229 cells to mediate cell-cell adhesion and grow in 3D culture on non-adherent surfaces. To quantify sphere formation (FIG. 5A), the footprint areas of aggregates were measured on day 1 and normalized to that of the DMSO control. At this time point, a larger footprint size (>120%) indicates inhibition, i.e., the failure of cells to form a compact aggregate. To quantify sphere growth (FIG. 5B), we calculated the percent changes in sphere footprint areas between day 1 and day 7 and normalized them to that of the DMSO controls.
compound,measurement,setting,value
COc1ccc(CC(NC(=O)C2CC(NC(=O)CSC)CCN2C(=O)CCC(=O)O)C(N)=O)cc1 (stereo not shown) [Compound 247685114],Effect on LN229 scratch wound closure / migration,"LN229 cells [1]; 100 μM, in words",moderately stimulated LN229; also recorded: weakly stimulatory in U87 and LN229 scratch assays
same,activity at 100 µM,"LN229 cells [1]; Homo sapiens, LN-229, normalized to DMSO controls, read-out: LN229 scratch wound closure relative to DMSO controls",~120%
same,"Effect on glioma cells, overall",glioma cells,"only weak, if any, activity in other glioma-cell assays"
same,Effect on U87 cell migration (scratch wound closure),U87 cells,did not reach our strict cut-off for an activator; also recorded: weakly stimulatory in U87 and LN229 scratch assays
same,Effect on PTPμ-dependent Sf9 aggregation / adhesion,PTPμ,activate Sf9-PTPμ aggregation; also recorded: activate PTPμ-dependent adhesion; also recorded: considerable increase in aggregate numbers; also recorded: activator of PTPμ-dependent adhesion; also recorded: able to activate PTPμ-mediated aggregation
same,Effect on Gli36 sphere formation,"Gli36 cells; 100 μM, day 1, in words",affected Gli36 spheres; also recorded: accelerate Gli36 sphere condensation and growth; also recorded: weakly stimulatory in U87 and LN229 scratch assays and Gli36 sphere formation and growth assays; also recorded: stimulate Gli36 sphere formation and growth
same,Effect on Gli36 sphere growth,"Gli36 cells; 100 μM, day 7, in words",grew marginally faster than controls; also recorded: modest activator of Gli36 sphere growth; also recorded: weakly stimulatory in U87 and LN229 scratch assays and Gli36 sphere formation and growth assays; also recorded: stimulate Gli36 sphere formation and growth
same,activity at 100 µM,"Gli36 cells; Homo sapiens, GLI36, 24 h, day 1, of the control area, read-out: Average day 1 sphere footprint area, Gli36",68%
same,Effect on LN229 sphere formation,LN229 cells [2]; day 1,did not affect LN229 sphere formation or growth
same,Effect on LN229 sphere growth,LN229 cells [2]; day 7,did not affect LN229 sphere formation or growth
